Article PMC8536644, “Enigmatic mechanism of the N-vinylpyrrolidone hepatocarcinogenicity in the rat” (Archives of Toxicology, 2021)
Values joined by “and” are separate entries in the source; they are usually repeats but may differ in a detail not shown here. Identical values can stand only once.

Experiments:
rat liver cells [1] = experiment: Comet assay, conventional (no FPG), liver; settings: for Increase of the TI vs vehicle control: p ≤ 0.01; for Hedgehogs/100 cells (mean ± SD) / TI (%) (mean ± SD) / TI (%), mean of medians from 2 slides: liver, 200 mg/kg bw oral, once; for TI (%), mean of medians from 2 slides: individual animals
Method: (§1) Animals were anesthetized by 3.5% isoflurane (approximately 3 min, evaporator Dräger Vapor 19.3) and then killed by cervical dislocation. The liver was removed and its left lateral lobe used for the Comet assay. The remainder of the liver was washed in saline and then in two aliquots shock frozen in liquid nitrogen and stored at − 80 °C for later examinations. Subsequently the lung was removed from the dead animal. Its left lobe was used for the Comet assay and the remainder treated as described above for the liver. Thereafter the femora were removed for the preparation of the bone marrow.
(§2) The Comet assay was performed under alkaline conditions according to the principles described by Singh et al. ([1988]) and Tice et al. ([2000]).
(§3) Liver and lung cells were obtained essentially as described by Hartmann et al. ([2004]) and by the Japanese Center for the Validation of Alternative Methods (JaCVAM [2009]). Single cells were obtained within 1 h after killing of the animals in order to minimize DNA damage during the preparation.
(§4) The organ parts (see above) were washed in mincing buffer (50 mM EDTA in HBSS [without Ca^2+ and Mg^2+] pH 7.5: DMSO 9:1 (v/v), the latter added shortly before use, stored at 4 °C), cut into 1 to 2-mm pieces in ice-cold mincing buffer and transferred to a cell sieve with 70-µm pores. The viability of the cell suspension was evaluated by the Trypan Blue Assay (Strober [2001]).
(§5) 100 µL of the obtained cell suspension was mixed at 37 °C with 900 µL Low Melting Agarose (LMA) (0.7% agarose in phosphate-buffered saline [PBS] [Biochrom, Berlin, Germany] without Ca^2+ and Mg^2+). 100 µL of this mixture was transferred to a slide, which had been coated with Normal Melting Agarose (NMA) (0.6% agarose in PBS without Ca^2+ and Mg^2+). The slides were protected with a cover slip and the agarose was hardened at approximately 4 °C. The cover slips were then removed and the slides put over night at 4 °C into lysis buffer (2.5 M NaCl, 125 mM NaOH, 127 mM EDTA, 10 mM Tris/NaOH, pH 10; 1% Triton X-100 and 10% DMSO (v/v), the latter two added before use) in order to lyse the cell membrane, nuclear membrane and remove the histone.
(§6) The then following procedures were performed in a shaded room to minimize UV-mediated DNA damage during the procedures.
(§7) Remaining lysis buffer or FPG buffer was removed by immersing/washing the slides in PBS (without Ca^2+ and Mg^2+).
(§8) The slides were then placed into the electrophoresis chamber, which was cooled and protected from light. Slides were covered with electrophoresis buffer (0.3 M NaOH, 1 mM EDTA, pH > 13) carefully avoiding air bubbles. The DNA was allowed to unwind (20 min). Thereafter the electrophoresis was started (25 V, 300 mA, […], 30 min). The slides were then washed (2 times 5 min) in neutralization buffer (0.4 M Tris/HCl, pH 7.5), dehydrated and fixed in 100% ethanol (1 min), dried at room temperature overnight and stored at room temperature protected from dust.
(§9) Quantitative evaluation of the Comet assays was performed by fluorescence microscopy after DNA staining with ethidium bromide.

rat lung cells = experiment: Comet assay, conventional (no FPG), lung; settings: no FPG; for Increase of the TI vs vehicle control / Hedgehogs/100 cells (mean ± SD) / TI (%) (mean ± SD) / TI (%), mean of medians from 2 slides: lung; for Increase of the TI vs vehicle control: p ≤ 0.01; for Hedgehogs/100 cells (mean ± SD) / TI (%) (mean ± SD) / TI (%), mean of medians from 2 slides: 200 mg/kg bw oral, once; for TI (%), mean of medians from 2 slides: individual animals
Method: as §1, §2, §3, §4, §5, §6, §7, §8, §9

rat liver cells [2] = experiment: Comet assay in presence of FPG, liver; settings: in presence of FPG, 200 mg/kg
Method: as §1, §2, §3, §4, §5, §6
Those slides which were destined to be treated with the DNA base excision repair enzyme FPG (Sigma Aldrich, Steinheim, Germany) were washed (3 times for 5 min) with FPG buffer (0.04 M HEPES, 0.5 mM EDTA, 0.1 M KCl, pH 8; add shortly before use bovine serum albumin [BSA] to a final concentration of 0.02%). Subsequently 50 µL FPG-enzyme-buffer (prepared shortly prior to use by 30-fold dilution of the following suspension in FPG buffer: 7 µL FPG-enzyme (14 U) and 70 µL glycerol in 623 µL FPG-Puffer, stored at − 80 °C) was pipetted on the slide which was covered with a cover slide and incubated for 30 min at 37 °C while being placed on a humid filter paper. After hardening of the agarose cover slips were removed.
as §7

[3] = Trypan Blue viability of the single cell suspension, lung; assay type: in vivo, rat; settings: Wistar, rat, in vivo, po, 200 mg/kg

CCOS(C)(=O)=O [EMS, ethyl methanesulfonate, reference compound]
Tail intensity, liver, positive controls of the present study (rat liver cells [1]; 200 mg/kg body weight): 17–19%
Increase of the TI vs vehicle control (rat liver cells [1]; liver cells, female, no FPG, 200 mg/kg): 28 fold
Increase of the TI vs vehicle control (rat liver cells [1]; liver cells, male, no FPG, 200 mg/kg): 27 fold
Hedgehogs per 100 cells, averaged for both genders (rat liver cells [1]; liver cells, no FPG, 200 mg/kg): 7.5 per 100 cells
Hedgehogs/100 cells (mean ± SD) (rat liver cells [1]; female, no FPG): 7 ± 4 /100 cells
TI (%) (mean ± SD) (rat liver cells [1]; female, no FPG): 16.3 ± 4.49%
TI (%), mean of medians from 2 slides (rat liver cells [1]; female, no FPG, 200 mg/kg): 9.1% and 13.6% and 17.5% and 22.4% and 17.8% and 17.3%
Hedgehogs/100 cells (mean ± SD) (rat liver cells [1]; male, no FPG): 8 ± 2 /100 cells
TI (%) (mean ± SD) (rat liver cells [1]; male, no FPG): 18.6 ± 5.97%
TI (%), mean of medians from 2 slides (rat liver cells [1]; male, no FPG, 200 mg/kg): 18.9% and 17.5% and 29.0% and 10.6% and 19.3% and 16.4%
Hedgehogs per 100 cells, averaged for both genders (rat lung cells; lung cells, 200 mg/kg): 9 per 100 cells
Increase of the TI vs vehicle control (rat lung cells; female, 200 mg/kg): 21 fold
Hedgehogs/100 cells (mean ± SD) (rat lung cells; female): 9 ± 5 /100 cells
TI (%) (mean ± SD) (rat lung cells; female): 16.7 ± 2.83%
TI (%), mean of medians from 2 slides (rat lung cells; female, 200 mg/kg): 13.2% and 13.0% and 18.7% and 18.8% and 17.8%
Increase of the TI vs vehicle control (rat lung cells; male, 200 mg/kg): 17 fold
Hedgehogs/100 cells (mean ± SD) (rat lung cells; male): 9 ± 4 /100 cells
TI (%) (mean ± SD) (rat lung cells; male): 19.3 ± 5.15%
TI (%), mean of medians from 2 slides (rat lung cells; male, 200 mg/kg): 20.7% and 14.6% and 26.5% and 13.1% and 23.3% and 17.8%
Comets seen in presence of FPG (rat liver cells [2]): only hedgehogs were seen
TI in presence of FPG (image analysis) (rat liver cells [2]): marked increase
viability at 24 h ([3]; female, Individual viability (%)): 99%
viability at 24 h ([3]; female, Viability (%) (mean ± SD)): 99 ± 1%
viability at 24 h ([3]; male, Individual viability (%)): 99%
viability at 24 h ([3]; male, Viability (%) (mean ± SD)): 99 ± 1%
